Assay results reported in US20260060252A1, “HERBICIDAL COMBINATIONS” (UPL LTD, priority 2018, published 2026).

Experiments:
Type in all cases: in vivo
Settings in all cases: clomazone 32, metribuzin 12, sulfentrazone 7.7 Fl oz/A, combination 32 + 7.7 + 12 Fl oz/A
Greenfox tail = assay: % control of Greenfox tail in Soybean
Tall morning glory = assay: % control of Tall morning glory in Soybean
Palmer amaranth = assay: % control of Palmer amaranth in Soybean

Row | Compound | % control of Greenfox tail in Soybean, Actual (Greenfox tail; 14 DAA) | % control of Greenfox tail in Soybean, Actual (Greenfox tail; 28 DAA) | % control of Greenfox tail in Soybean, Actual (Greenfox tail; 45 DAA) | % control of Tall morning glory in Soybean, Actual (Tall morning glory; 14 DAA) | % control of Tall morning glory in Soybean, Actual (Tall morning glory; 28 DAA) | % control of Tall morning glory in Soybean, Actual (Tall morning glory; 45 DAA) | % control of Palmer amaranth in Soybean, Actual (Palmer amaranth; 14 DAA) | % control of Palmer amaranth in Soybean, Actual (Palmer amaranth; 28 DAA) | % control of Palmer amaranth in Soybean, Actual (Palmer amaranth; 45 DAA)
1 | CC1(C)CON(Cc2ccccc2Cl)C1=O [Clomazone] | 85% | 56.7% | 32.9% | 53.3% | 30% | 13% | 60% | 43.3% | 16.4%
2 | Cc1nn(-c2cc(NS(C)(=O)=O)c(Cl)cc2Cl)c(=O)n1C(F)F [Sulfentrazone, N-[2,4-dichloro-5-[4-(difluoromethyl)-4,5-dihydro-3-methyl-5-oxo-1H-1,2,4-triazol-1-yl]phenyl]-methane sulfonamide] | 68.5% | 46.6% | 29.7% | 66.7% | 42.8% | 22.5% | 80% | 62% | 39.4%
3 | CSc1nnc(C(C)(C)C)c(=O)n1N [Metribuzin, 4-amino-6-(1,1-dimethylethyl)-3-(methylthio)-1,2,4-triazin-5 (4H)-one] | 63.4% | 39.9% | 22.7% | 53.3% | 39.6% | 16.4% | 65% | 50% | 36.1%
